The values below come from ChEMBL document CHEMBL3860110, “First Structure-Activity Relationship of 17β-Hydroxysteroid Dehydrogenase Type 14 Nonsteroidal Inhibitors and Crystal Structures in Complex with the Enzyme” (J Med Chem, 2016).

The structures appear in SMILES notation.

A short description of series [1]: Dissociation constant, pKa of the compound at OH/C-ring. The class given is physicochemical.
In series [2] the target is T1, 17-beta-hydroxysteroid dehydrogenase 14 (Homo sapiens) (UniProt Q9BPX1).
T1 sequence (whole entry): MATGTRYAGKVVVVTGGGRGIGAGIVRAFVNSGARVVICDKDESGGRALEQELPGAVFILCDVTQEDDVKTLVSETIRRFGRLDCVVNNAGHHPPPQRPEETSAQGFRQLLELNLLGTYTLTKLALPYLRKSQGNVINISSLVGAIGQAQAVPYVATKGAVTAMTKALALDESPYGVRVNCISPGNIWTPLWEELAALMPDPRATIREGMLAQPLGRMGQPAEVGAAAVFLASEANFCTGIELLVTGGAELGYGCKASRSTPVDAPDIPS
The series can be described thus: Inhibition of N-terminal 6His-tagged human HSD17B14 expressed in Escherichia coli BL21 (DE3) pLysS at 22.2 uM using E2 substrate and NAD+ incubated for 2 hrs using purified enzyme by fluorimetric assay.

The target in series [3] is T2, 17-beta-hydroxysteroid dehydrogenase type 2 (Homo sapiens, UniProt P37059).
T2 sequence (P37059 whole entry): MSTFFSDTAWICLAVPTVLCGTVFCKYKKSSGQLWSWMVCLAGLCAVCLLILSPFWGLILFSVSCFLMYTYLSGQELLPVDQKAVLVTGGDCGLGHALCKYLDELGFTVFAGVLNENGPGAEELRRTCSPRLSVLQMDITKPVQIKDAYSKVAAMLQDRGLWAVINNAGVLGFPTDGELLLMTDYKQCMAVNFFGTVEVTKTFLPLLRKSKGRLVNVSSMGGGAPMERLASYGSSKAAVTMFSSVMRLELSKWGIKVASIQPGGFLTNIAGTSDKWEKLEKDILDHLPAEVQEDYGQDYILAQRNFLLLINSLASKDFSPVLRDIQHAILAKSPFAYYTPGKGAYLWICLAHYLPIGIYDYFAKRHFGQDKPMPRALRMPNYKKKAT
As to the kind of experiment: Inhibition of purified human placental microsomal 17beta-HSD2 using [3H]-E2 substrate and NAD+ by HPLC based radioactive […] assay.

With `O=C(c1cccc(O)c1)c1cccc(-c2ccc(O)c(F)c2)n1`, in series [1], the pKa (usually the pH at which an ionisable group is half protonated) amounted to 8.8.
For `COc1ccc(-c2ccc(C(=O)c3ccc(F)c(OC)c3)nc2)cc1F`, in series [2], the inhibition (usually the percentage by which the read-out fell short of the control) was 57%.
`O=C(c1ccc(F)c(O)c1)c1cccc(-c2ccc(O)c(F)c2)n1` gave a pKa in series [1] of 7.8.
Consider `Cc1cc(-c2ccc(C(=O)c3ccc(F)c(O)c3)cc2)ccc1O`, for which, in series [3], the IC50 (usually the concentration that inhibits the measured activity by half) was 40 nM.
